Earlier results, collected in patent US4994542A, “Surgical adhesive” (Asahi Glass Co., Ltd., priority 1988, dated 1991).

Columns and labels:
[1] = hydrolysis products of TDI and MDI
[2] = aromatic polyisocyanates, general statement

Substance	activity in a microbial mutagenicity test (Ames test) [1]	mutagenic activity [2]
diaminodiphenylmethane	high activity	
tolylene diamine	high activity	
tolylene diisocyanates [TDI]		high mutagenic activity
diphenylmethane diisocyanates [MDI]		high mutagenic activity
